Test results reported in US20260327204A1, “DEGRADERS OF CYCLIN-DEPENDENT KINASE 12/13, COMPOSITIONS, AND USES THEREOF” (ZHEJIANG UNIVERSITY, priority 2023, published 2026).

Columns and labels:
CDK12 = CDK12 (Homo sapiens, UniProt Q9NYV4); test: Western blot degradation of CDK12 (Example 2); format: cell-based; set-up: degradation of CDK12/13 protein in leukemia cells KASUMI-1, MV4-11, and Jurkat; endogenous in cells; conditions: DC50 classes, cell line not given; for DC50: read-out: CDK12 degradation Activity
CDK12, sequence (Q9NYV4 whole entry): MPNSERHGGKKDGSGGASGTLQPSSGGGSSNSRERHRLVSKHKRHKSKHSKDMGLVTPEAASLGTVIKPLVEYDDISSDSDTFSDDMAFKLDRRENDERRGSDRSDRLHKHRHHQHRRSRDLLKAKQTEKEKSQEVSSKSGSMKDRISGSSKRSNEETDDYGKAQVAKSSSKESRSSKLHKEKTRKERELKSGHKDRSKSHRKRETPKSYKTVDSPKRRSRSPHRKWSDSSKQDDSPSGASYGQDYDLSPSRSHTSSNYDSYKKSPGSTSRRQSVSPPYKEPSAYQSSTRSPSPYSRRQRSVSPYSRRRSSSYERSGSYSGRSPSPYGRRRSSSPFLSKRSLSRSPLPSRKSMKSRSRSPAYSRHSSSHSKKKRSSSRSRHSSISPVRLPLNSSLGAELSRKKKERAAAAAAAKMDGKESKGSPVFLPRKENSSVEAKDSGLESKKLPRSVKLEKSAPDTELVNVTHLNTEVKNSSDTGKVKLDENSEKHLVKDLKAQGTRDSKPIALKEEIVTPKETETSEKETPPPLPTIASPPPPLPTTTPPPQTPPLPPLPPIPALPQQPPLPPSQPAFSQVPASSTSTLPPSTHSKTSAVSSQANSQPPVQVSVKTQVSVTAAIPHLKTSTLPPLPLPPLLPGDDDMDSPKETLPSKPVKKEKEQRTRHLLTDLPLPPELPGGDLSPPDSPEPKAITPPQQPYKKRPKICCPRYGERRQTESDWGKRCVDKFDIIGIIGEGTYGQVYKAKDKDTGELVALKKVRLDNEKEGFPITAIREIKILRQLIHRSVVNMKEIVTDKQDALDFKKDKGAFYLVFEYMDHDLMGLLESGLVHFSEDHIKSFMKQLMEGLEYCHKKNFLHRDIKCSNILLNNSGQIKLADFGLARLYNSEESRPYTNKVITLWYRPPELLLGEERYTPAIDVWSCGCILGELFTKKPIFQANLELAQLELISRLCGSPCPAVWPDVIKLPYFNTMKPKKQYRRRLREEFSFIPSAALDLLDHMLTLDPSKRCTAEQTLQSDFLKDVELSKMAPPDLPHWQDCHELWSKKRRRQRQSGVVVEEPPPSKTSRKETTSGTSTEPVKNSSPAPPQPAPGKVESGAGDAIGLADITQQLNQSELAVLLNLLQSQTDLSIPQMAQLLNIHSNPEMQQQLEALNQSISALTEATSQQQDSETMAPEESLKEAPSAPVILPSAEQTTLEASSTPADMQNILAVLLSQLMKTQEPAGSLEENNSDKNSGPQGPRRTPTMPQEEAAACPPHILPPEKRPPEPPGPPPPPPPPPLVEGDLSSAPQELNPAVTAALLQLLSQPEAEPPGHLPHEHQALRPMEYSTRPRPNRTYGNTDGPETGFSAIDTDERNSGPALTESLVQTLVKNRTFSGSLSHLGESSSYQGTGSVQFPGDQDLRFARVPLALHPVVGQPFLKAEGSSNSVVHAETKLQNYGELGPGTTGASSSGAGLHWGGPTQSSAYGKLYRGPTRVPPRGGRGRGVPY
CDK12, sequence (O75909 whole entry partner): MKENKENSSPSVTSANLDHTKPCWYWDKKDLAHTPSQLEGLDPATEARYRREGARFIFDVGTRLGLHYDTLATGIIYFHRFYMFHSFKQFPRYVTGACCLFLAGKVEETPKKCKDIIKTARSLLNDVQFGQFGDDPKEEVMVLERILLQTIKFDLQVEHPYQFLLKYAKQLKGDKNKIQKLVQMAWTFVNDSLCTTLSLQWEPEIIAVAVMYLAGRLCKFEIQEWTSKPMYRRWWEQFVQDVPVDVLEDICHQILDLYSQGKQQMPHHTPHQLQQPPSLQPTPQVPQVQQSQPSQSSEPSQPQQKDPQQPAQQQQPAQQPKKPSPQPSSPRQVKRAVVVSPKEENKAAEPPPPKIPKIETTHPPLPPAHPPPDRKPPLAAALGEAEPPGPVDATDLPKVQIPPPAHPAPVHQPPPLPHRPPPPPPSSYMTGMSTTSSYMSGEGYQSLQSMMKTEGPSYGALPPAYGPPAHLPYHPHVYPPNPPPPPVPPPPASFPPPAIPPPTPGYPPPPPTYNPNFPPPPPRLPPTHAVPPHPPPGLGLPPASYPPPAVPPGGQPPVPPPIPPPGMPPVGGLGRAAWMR
Protocol: (§1) Western blot was used to determine the degradation of CDK12/13 protein in leukemia cells KASUMI-1, MV4-11, and Jurkat. The two compounds with the best degradation effects were further validated for their ability to degrade CDK12/13 protein in breast cancer cells MDA-MB-231 using a concentration gradient.
(§2) • Cell lines: KASUMI-1, MV4-11, Jurkat, or MDA-MB-231 • Culture medium: DMEM/RIPM-1640+10% Hyclone serum • Compound dissolution method: Compounds were dissolved in DMSO to prepare a 50 mM stock solution, and then diluted to the corresponding concentrations.
(§3) (1) In vitro cell culture: The selected cells were cultured in a 37 °C constant temperature incubator with 5% CO2. Once the cell density reached 70-90%, they were passaged for subsequent experiments.
(§4) (2) Cell seeding: Cells were digested, and the cell suspension was transferred to a 1.5 mL Eppendorf tube. After centrifugation at 1,000 rpm for 5 min, the cells were resuspended in 2 mL of culture medium and counted. The cell suspension was seeded in a 24-well plate at a density of 200,000 cells per well and allowed to adhere for 8-12 h.
(§5) (3) Compound treatment: The 50 mM compound stock solution was diluted with cell culture medium to a final concentration of 0.01 μM-3 μM. Cells were incubated in a 37 °C incubator with 5% CO2 for 3 h-48 h. The DMSO group served as the negative control.
(§6) At the end of the treatment time, the cells were collected and washed once with PBS. An appropriate volume of 4% SDS was added to lyse the cells, and the mixture was sonicated until no longer viscous. After centrifugation at 12,000 rpm at room temperature for 30 min, the supernatant was transferred to a new EP tube for protein quantification.
(§7) The exposure results were quantitatively analyzed using Image J software. First, the grayscale values of the bands were calculated using Image J. Then, the grayscale value of the target protein was divided by the grayscale value of the internal reference protein for normalization. The calculation formula is: […]
(§8) Where A is the grayscale value and D is the degradation rate.
(§9) In the figures, CDK12 and CDK13 are the target proteins under study, and β-Actin and GAPDH are the internal reference proteins. Internal reference proteins are used to indicate the total protein amount in each experimental group for quantitative analysis.

CDK13 = CDK13 (Homo sapiens, UniProt Q14004); test: Western blot degradation of CDK13 (Example 2); format: cell-based; set-up: degradation of CDK12/13 protein in leukemia cells KASUMI-1, MV4-11, and Jurkat; endogenous in cells; conditions: DC50 classes, cell line not given; for DC50: read-out: CDK13 degradation Activity
CDK13, sequence (Q14004 whole entry): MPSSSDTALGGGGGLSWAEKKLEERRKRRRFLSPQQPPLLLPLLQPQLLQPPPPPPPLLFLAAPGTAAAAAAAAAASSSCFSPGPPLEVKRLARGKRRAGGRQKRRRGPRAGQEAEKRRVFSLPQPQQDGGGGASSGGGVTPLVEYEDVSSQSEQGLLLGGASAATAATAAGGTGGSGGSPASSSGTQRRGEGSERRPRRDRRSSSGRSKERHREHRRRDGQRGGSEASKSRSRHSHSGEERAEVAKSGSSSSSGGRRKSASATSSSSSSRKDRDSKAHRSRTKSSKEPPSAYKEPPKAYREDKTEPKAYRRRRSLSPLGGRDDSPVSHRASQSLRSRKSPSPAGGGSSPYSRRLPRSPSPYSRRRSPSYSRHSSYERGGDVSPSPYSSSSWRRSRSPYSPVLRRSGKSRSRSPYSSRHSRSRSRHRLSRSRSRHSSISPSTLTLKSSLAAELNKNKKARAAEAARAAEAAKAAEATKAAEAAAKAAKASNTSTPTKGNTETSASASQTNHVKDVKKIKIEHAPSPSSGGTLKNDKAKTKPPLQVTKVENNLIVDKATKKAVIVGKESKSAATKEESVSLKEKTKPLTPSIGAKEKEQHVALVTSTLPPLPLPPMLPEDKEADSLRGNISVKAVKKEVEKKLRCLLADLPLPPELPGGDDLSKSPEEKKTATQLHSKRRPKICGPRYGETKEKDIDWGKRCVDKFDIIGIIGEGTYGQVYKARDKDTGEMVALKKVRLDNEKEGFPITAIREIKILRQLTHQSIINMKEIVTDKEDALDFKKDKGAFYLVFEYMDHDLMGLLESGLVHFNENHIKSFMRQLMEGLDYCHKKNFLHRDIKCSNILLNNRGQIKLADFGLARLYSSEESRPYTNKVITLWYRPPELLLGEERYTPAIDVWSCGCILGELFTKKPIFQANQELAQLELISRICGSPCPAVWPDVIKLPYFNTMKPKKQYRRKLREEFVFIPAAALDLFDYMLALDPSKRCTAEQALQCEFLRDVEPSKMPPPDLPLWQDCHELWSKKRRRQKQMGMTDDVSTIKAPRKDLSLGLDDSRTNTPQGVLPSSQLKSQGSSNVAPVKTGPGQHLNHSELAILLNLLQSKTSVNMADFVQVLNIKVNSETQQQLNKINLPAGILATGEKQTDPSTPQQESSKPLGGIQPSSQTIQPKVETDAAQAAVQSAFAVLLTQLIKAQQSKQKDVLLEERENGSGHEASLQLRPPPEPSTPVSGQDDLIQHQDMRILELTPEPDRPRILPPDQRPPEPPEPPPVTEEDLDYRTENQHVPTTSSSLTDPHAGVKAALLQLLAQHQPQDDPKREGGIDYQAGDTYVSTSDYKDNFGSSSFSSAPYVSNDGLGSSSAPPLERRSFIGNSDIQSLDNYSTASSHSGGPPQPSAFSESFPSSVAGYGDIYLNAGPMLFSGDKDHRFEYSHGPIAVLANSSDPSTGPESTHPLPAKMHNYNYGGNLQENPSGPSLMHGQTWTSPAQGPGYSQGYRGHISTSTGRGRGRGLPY
CDK13, sequence (O75909 whole entry partner): as the sequence (O75909 whole entry partner) above
Protocol: as §1, §2, §3, §4, §5, §6, §7, §8, §9

Row | Structure (SMILES) | CDK12 degradation Activity (CDK12) | CDK13 degradation Activity (CDK13) | DC50 (CDK12) | DC50 (CDK13)
1 | Cc1ncsc1-c1ccc([C@H](C)NC(=O)[C@@H]2C[C@@H](O)CN2C(=O)[C@@H](NC(=O)N2CC3(CCN(c4ccc(N(C(=O)NCc5ccccc5)[C@H]5CC[C@H](Nc6ncc(C#N)cn6)CC5)cc4)CC3)C2)C(C)(C)C)cc1 [Formula 54] | − | − |  | 
2 | Cc1ncsc1-c1ccc([C@H](C)NC(=O)[C@@H]2C[C@@H](O)CN2C(=O)[C@@H](NC(=O)N2CC3(CCN(c4ccc(N(C(=O)NCc5ccccc5)[C@H]5CC[C@H](Nc6ccc(C#N)cn6)CC5)cc4)CC3)C2)C(C)(C)C)cc1 [Formula 55] | − | − |  | 
3 | Cc1ncsc1-c1ccc([C@H](C)NC(=O)[C@@H]2C[C@@H](O)CN2C(=O)[C@@H](NC(=O)COCCn2cc(-c3ccc(N(C(=O)NCc4ccccc4)[C@H]4CC[C@H](Nc5ccc(C#N)cn5)CC4)cc3)ccc2=O)C(C)(C)C)cc1 [Formula 56] | − | − |  | 
4 | Cc1ncsc1-c1ccc([C@H](C)NC(=O)[C@@H]2C[C@@H](O)CN2C(=O)[C@@H](NC(=O)COCCOCCn2cc(-c3ccc(N(C(=O)NCc4ccccc4)[C@H]4CC[C@H](Nc5ccc(C#N)cn5)CC4)cc3)ccc2=O)C(C)(C)C)cc1 [Formula 57] | − | − |  | 
5 | Cc1ncsc1-c1ccc([C@H](C)NC(=O)[C@@H]2C[C@@H](O)CN2C(=O)[C@@H](NC(=O)COCCOCCOCCn2cc(-c3ccc(N(C(=O)NCc4ccccc4)[C@H]4CC[C@H](Nc5ccc(C#N)cn5)CC4)cc3)ccc2=O)C(C)(C)C)cc1 [Formula 58] | − | − |  | 
6 | Cc1ncsc1-c1ccc([C@H](C)NC(=O)[C@@H]2C[C@@H](O)CN2C(=O)[C@@H](NC(=O)COCCOCCOCCOCCn2cc(-c3ccc(N(C(=O)NCc4ccccc4)[C@H]4CC[C@H](Nc5ccc(C#N)cn5)CC4)cc3)ccc2=O)C(C)(C)C)cc1 [Formula 59] |  |  | 1000 to 3000 nM | 1000 to 3000 nM
7 | Cc1ncsc1-c1ccc([C@H](C)NC(=O)[C@@H]2C[C@@H](O)CN2C(=O)[C@@H](NC(=O)COCCOCCOCCOCCOCCn2cc(-c3ccc(N(C(=O)NCc4ccccc4)[C@H]4CC[C@H](Nc5ccc(C#N)cn5)CC4)cc3)ccc2=O)C(C)(C)C)cc1 [Formula 60] |  |  | 1000 to 3000 nM | 500 to 1000 nM
8 | Cc1ncsc1-c1ccc([C@H](C)NC(=O)[C@@H]2C[C@@H](O)CN2C(=O)[C@@H](NC(=O)Cn2cc(-c3ccc(N(C(=O)NCc4ccccc4)[C@H]4CC[C@H](Nc5ncc(C#N)cn5)CC4)cc3)ccc2=O)C(C)(C)C)cc1 [Formula 61] | − | − |  | 
9 | Cc1ncsc1-c1ccc([C@H](C)NC(=O)[C@@H]2C[C@@H](O)CN2C(=O)[C@@H](NC(=O)COCCOc2ccc(-c3ccc4c(c3)CN(Cc3ccccc3)C(=O)N4[C@H]3CC[C@H](Nc4ccc(C#N)cn4)CC3)cn2)C(C)(C)C)cc1 [Formula 62] |  |  | 500 to 1000 nM | 500 to 1000 nM
10 | Cc1ncsc1-c1ccc([C@H](C)NC(=O)[C@@H]2C[C@@H](O)CN2C(=O)[C@@H](NC(=O)CN2CCN(c3ccc(-c4ccc5c(c4)CCN(Cc4ccccc4)C(=O)N5[C@H]4CC[C@H](Nc5ccc(C#N)cn5)CC4)cn3)CC2)C(C)(C)C)cc1 [Formula 69] |  |  | 500 to 1000 nM | 100 to 500 nM
11 | Cc1ncsc1-c1ccc([C@H](C)NC(=O)[C@@H]2C[C@@H](O)CN2C(=O)[C@@H](NC(=O)CN2CCN(c3ccc(-c4ccc5c(c4)CCCN(Cc4ccccc4)C(=O)N5[C@H]4CC[C@H](Nc5ccc(C#N)cn5)CC4)cn3)CC2)C(C)(C)C)cc1 [Formula 70] |  |  | < 100 nM | < 100 nM
12 | Cc1ncsc1-c1ccc([C@H](C)NC(=O)[C@@H]2C[C@@H](O)CN2C(=O)[C@@H](NC(=O)CN2CCN(c3ncc(-c4ccc(N(C(=O)NCc5ccccc5)[C@H]5CC[C@H](Nc6ccc(C#N)cn6)CC5)cc4)cn3)CC2)C(C)(C)C)cc1 [Formula 79] |  |  | < 100 nM | < 100 nM
